Source: the supplement of paper PMC7285287
Structures can show the parent of a compound that is named as a salt. ± gives the standard deviation of the averaged measurements.

Tested on: Candida albicans SNY425 biofilm
Assay: biofilm OD600 relative to DMSO control (fraction of DMSO control); higher = more biofilm (less inhibition)
Experimental: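 C. albicans SNY425 biofilm optical density assays (OD600 of the adhered biofilm after media removal) in RPMI-MOPS pH 7.0 at 37 °C with shaking. Groups of 4 to 8 wells per compound are averaged and normalised to the average of DMSO loading control wells. Adherence inhibition was tested at 10 and 40 µM, sustained inhibition and disruption at 40 µM, and the MBIC series at 200 to 0.78 µM.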

[1] = 0.78 µM, assay detail: sustained inhibition (MBIC series), 384-well, compound during adherence and 24 h growth
[2] = 3.125 µM, assay detail: sustained inhibition (MBIC series), 384-well, compound during adherence and 24 h growth
[3] = 10 µM, assay detail: adherence inhibition, 96-well, compound during 90 min adherence only
[4] = 12.5 µM, assay detail: sustained inhibition (MBIC series), 384-well, compound during adherence and 24 h growth
[5] = 40 µM, assay detail: adherence inhibition, 96-well, compound during 90 min adherence only
[6] = 40 µM, assay detail: disruption, 384-well, compound added to 24 h mature biofilm for further 24 h
[7] = 40 µM, assay detail: sustained inhibition, 384-well, compound during adherence and 24 h growth
[8] = 50 µM, assay detail: sustained inhibition (MBIC series), 384-well, compound during adherence and 24 h growth
[9] = 200 µM, assay detail: sustained inhibition (MBIC series), 384-well, compound during adherence and 24 h growth

SMILES | biofilm OD600 [1] | biofilm OD600 [2] | biofilm OD600 [3] | biofilm OD600 [4] | biofilm OD600 [5] | biofilm OD600 [6] | biofilm OD600 [7] | biofilm OD600 [8] | biofilm OD600 [9]
Fc1ccc([C@@H]2CCNC[C@H]2COc2ccc3c(c2)OCO3)cc1 [paroxetine hydrochloride] | 1.02 | 1.05 | 0.932 | 0.95 | 0.926 | 0.9497 ± 0.0011 | 0.509 ± 0.05 | 0.62 | 0.565
O=C(O)c1cccnc1 [niacin] | – | – | 0.913 | – | 0.91 | 1.016 ± 0.002 | 0.967 ± 0.024 | – | –
NC(=O)C(c1ccccc1)(c1ccccc1)[C@@H]1CCN(CCc2ccc3c(c2)CCO3)C1 [darifenacin hydrobromide] | – | – | 1.04 | – | 0.916 | 1 ± 0.018 | 1.05 ± 0.046 | – | –
O=C([O-])C(O)[C@H](O)[C@@H](O)[C@H](O)[C@H](O)CO.O=C([O-])C(O)[C@H](O)[C@@H](O)[C@H](O)[C@H](O)CO.[Ca+2] (some centres undefined) [calcium gluceptate] | 0.996 | 1.09 | 0.997 | 1.02 | 0.955 | 0.941 ± 0.037 | 0.955 ± 0.022 | 1.02 | 0.823
Cc1c(OCC(F)(F)F)ccnc1C[S@@+]([O-])c1nc2ccccc2[nH]1 [dexlansoprazole] | 0.981 | 0.887 | 0.925 | 0.833 | 0.837 | 1.01 ± 0.024 | 0.7 ± 0.091 | 0.643 | 0.625
CC(C)N1CCN(c2ccc(OCC3COC(Cn4cncn4)(c4ccc(Cl)cc4Cl)O3)cc2)CC1 (centres undefined) [terconazole] | 0.77 | 0.76 | 0.387 | 0.728 | 0.269 | 0.9787 ± 0.008 | 0.55 ± 0.032 | 0.568 | 0.403
CCOC(=O)[C@H](CCc1ccccc1)N[C@@H](C)C(=O)N1Cc2ccccc2C[C@H]1C(=O)O [quinapril hydrochloride] | – | – | 1.07 | – | 0.946 | 1 ± 0.022 | 1.01 ± 0.033 | – | –
Clc1ccc(C(Cn2ccnc2)OCc2ccsc2Cl)c(Cl)c1 (centres undefined) [tioconazole] | 0.768 | 0.714 | 0.341 | 0.675 | 0.284 | 0.8317 ± 0.0059 | 0.473 ± 0.032 | 0.491 | 0.312
CCCCCCCCCCCCCCCCOP(=O)([O-])OCC[N+](C)(C)C [miltefosine] | 0.9 | 0.9 | 0.99 | 1.08 | 0.844 | 1.09 ± 0.035 | 0.222 ± 0.015 | 0.298 | 0.259
N[C@@H](Cc1cc(I)c(Oc2ccc(O)c(I)c2)c(I)c1)C(=O)O [liothyronine sodium] | – | – | 1.14 | – | 1.15 | 0.989 ± 0.05 | 0.96 ± 0.021 | – | –
Cc1ccc(-c2nc3ccc(C)cn3c2CC(=O)N(C)C)cc1 [zolpidem] | – | – | 0.924 | – | 0.858 | 1.005 ± 0.0066 | 0.981 ± 0.055 | – | –
COCCCOc1ccnc(C[S+]([O-])c2nc3ccccc3[nH]2)c1C (centres undefined) [rabeprazole sodium] | 0.998 | 1.1 | 1.06 | 1.08 | 0.914 | 0.936 ± 0.049 | 1 ± 0.022 | 1.01 | 0.747
O=c1[nH]c(=O)n([C@H]2C[C@H](O)[C@@H](CO)O2)cc1F [floxuridine] | – | – | 1.02 | – | 0.967 | 0.969 ± 0.017 | 0.927 ± 0.025 | – | –
Cc1cc2c(s1)Nc1ccccc1N=C2N1CCN(C)CC1 [olanzapine] | – | – | 0.943 | – | 0.921 | 0.999 ± 0.027 | 0.974 ± 0.04 | – | –
C=CC1=C(C)c2cc3[nH]c(cc4nc(cc5[nH]c(cc1n2)c(C)c5CCC(=O)O)C(CCC(=O)O)=C4C)c(C)c3C=C [protoporphyrin ix] | – | – | 1.04 | – | 0.941 | 1.21 ± 0.082 | 1.65 ± 0.22 | – | –
O=C1CN(/N=C/c2ccc([N+](=O)[O-])o2)C(=O)N1 [nitrofurantoin] | – | – | 1.08 | – | 1.04 | 0.999 ± 0.035 | 0.999 ± 0.011 | – | –
